Laboratory results taken from US7288556B2, “Antiproliferative 1,2,3-thiadiazole compounds” (QLT Inc., priority 2000, dated 2007).

Test system: chick chorioallantoic membrane
Assay: Chick chorioallantoic membrane (CAM) developmental angiogenesis assay
Assay type: in vivo, chicken
Conditions: 50 μm
Experimental: e. Chick chorioallantoic membrane assay (CAM assay): was performed on fertilized chicken eggs and used as a test for angiogenesis inhibition.
Approximately 4 dozen fertilized eggs were sprayed with 70% ETOH and placed in a 180 egg incubator (GQF Sportsman incubator). The eggs were incubated “rounded-side down” and were fully rotated along the vertical axis every 30 minutes at 37° C. under 90% relative humidity.
After 4 days, the eggs were placed upside down (round side up) for 5-10 minutes, before a round hole approximately 3 centimeters in diameter was created above the pointed end or “air hole” of the egg using sterile blunt-ended forceps (“deshelling”). The inner membrane was also removed, and the embryo was visible through this opening. A small portion of the outer membrane was then carefully removed using fine-tipped forceps in order to expose the CAM. Sterile Parafilm was placed over the de-shelled opening to create an airtight seal. The eggs were returned to the incubator (with no rotation) for 2 days.
Viable eggs were then treated with control and inhibitor compounds. Gelfoam™ gelatin sterile sponge (Upjohn) or 1-2 mm discs of methylcellulose saturated with physiological saline, buffer or an appropriate dilution of the compounds under investigation. The Gelfoam™ fragments of methylcellulose discs were added directly to the surface of the developing CAM. Care was taken not to add the treatment directly over a large vessel. The shells were marked in 3 places to aid in stereotactic localization of the treatment sponge or disc. An average of 6 eggs were included for each experimental condition. The treated eggs were returned to the incubator for 2 days.
The eggs were then assessed for blood vessel growth inhibition. Photomicrographs for records and visual examination were made using a Nikon dissecting microscope with an attached Nikon 35-mm camera body.

Row | Compound | % Inhibition
1 | NC(=O)c1nnsc1Nc1cccc2ccccc12 [KP 27301, 5-(Naphthalen-1-ylamino)-[1,2,3]thiadiazole-4-carboxylicacid amide] | 100%
2 | CCNc1snnc1C(N)=O [KP 27304, 5-Ethylamino-[1,2,3]thiadiazole-4-carboxylicacid amide] | 60%

Biological target: T1, integrin linked kinase (ILK1), full-length recombinant GST-ILK (Homo sapiens, UniProt Q13418)
T1 construct: The target integrin linked kinase is a full-length recombinant protein expressed in sF9 insect cells by baculovirus infection; made in house; host or cells: Baculovirus; virus amplified in Sf9 cells, protein expressed in Hi5 insect cells
T1 sequence (Q13418 1-452): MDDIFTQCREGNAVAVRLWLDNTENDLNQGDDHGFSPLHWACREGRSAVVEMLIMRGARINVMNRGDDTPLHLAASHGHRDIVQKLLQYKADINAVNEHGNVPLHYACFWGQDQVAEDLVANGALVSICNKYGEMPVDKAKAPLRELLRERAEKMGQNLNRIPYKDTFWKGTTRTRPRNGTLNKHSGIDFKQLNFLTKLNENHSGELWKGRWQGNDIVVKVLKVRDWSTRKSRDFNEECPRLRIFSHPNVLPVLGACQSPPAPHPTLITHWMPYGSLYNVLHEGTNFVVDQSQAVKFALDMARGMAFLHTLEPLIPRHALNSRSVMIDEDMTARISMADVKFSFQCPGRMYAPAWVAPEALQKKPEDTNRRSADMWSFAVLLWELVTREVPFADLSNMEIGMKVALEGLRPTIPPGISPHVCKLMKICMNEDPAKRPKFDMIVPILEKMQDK
Assay: Integrin linked kinase inhibition assay (radioactive phosphate incorporation, scintillation counting)
Assay type: biochemical
Conditions: not given
Experimental: Compounds are screened using a series of disease related kinase targets, such as integrin linked kinase-1. Synthesized libraries of compounds are tested against each of the targets to find compounds that inhibit one of the targets preferentially.
Inhibition of the targets is measured by scintillation counting; the incorporation of radioactive phosphate onto a specific substrate which is immobilized onto a filter paper at the end of the assay. To provide meaningful measurements of inhibition, the assays are performed both in the absence and presence of specific and known inhibitors, and the amount of incorporated radioactivity is compared to provide a baseline measurement.
Inhibition Assay: Compounds listed in Table 1 were lyophilized and stored at −20° C. Stock solutions were made by weighing out the compounds and dissolving them in dimethyl sulfoxide (DMSO) to a standard concentration, usually 20 mM, and stored at −20° C. […] Diluted 100% DMSO was used as a negative control.
A volume of 5 μl of each compound dilution were robotically pipetted to Costar serocluster plates maintaining the same plate format. All assays consisted of the following volumes: • 5 μl diluted compound • 10 μl enzyme preparation • 5 μl substrate • 5 μl assay ATP and were then incubated 15 min at room temperature.
From each reaction, 10 μl of reaction mix was spotted onto Millipore Multiscreen-PH opaque plates and washed 2×10 min in 1% phosphoric acid. The plates were dried for at 40° C. for 30 min, then the substrate phosphate complexes were quantitated by scintillation counting. These Millipore plates are in a 96 well format with immobilized P81 phosphocellulose membranes. Both the phosphorylated and non-phosphorylated form of the substrate bind to the membrane while ATP (unincorporated phosphate) is removed in the subsequent wash steps.
Integrin Linked Kinase: The target integrin linked kinase is a full-length recombinant protein expressed in sF9 insect cells by baculovirus infection. The ILK1 substrate is […]-amide.
Recombinant ILK protein was expressed using cultured insect cells and a baculovirus expression system.
A large scale plasmid preparation of the resulting transfer construct was made using a Qiagen Plasmid Midi Kit. This ILK transfer construct was then co-transfected with BaculoGold DNA (Pharmingen) into Sf9 insect cells (Invitrogen) and a high titre preparation of GST-ILK recombinant baculovirus was produced by amplification in Sf9 cells. Liter scale expression of GST-ILK recombinant protein was done in 1000 ml spinner flasks (Bellco) by infection of Hi5 insect cells (Invitrogen) grown in Ex-Cell 400 Serum Free Media (JRH Biosciences) at a multiplicity of infection of approximately 5. The cells were harvested three days after infection and lysed in Hypotonic Lysis Buffer (HLB; 10 mM imidazole, 5 mM EDTA, 0.1% β-mercaptoethanol, 10 ug/ml PMSF, 1 mM benzamidine) by sonication. The lysate was centrifuged at 10,000×g for 20 min and the supernatant was discarded. The pellet was washed twice in HLB and then washed twice in High Salt Buffer (HSB; 500 mM NaCl, 10 mM imidazole, 5 mM EDTA, 0.1% β-mercaptoethanol, 10 ug/ml PMSF, 1 mM benzamidine). The pellet was then resuspended in DNAse-ATP Buffer (DAB; 10 mM MgCl2, 1 mM MnCl2, β-methyl aspartic acid, 2 mM NaF, 0.55 mg/ml ATP, 1 ug/ml DNAse I, 1% NP-40, 10 mM imidazole, 5 mM EDTA, 0.1% β-mercaptoethanol, 10 ug/ml PMSF, 1 mM benzamidine) and stirred for 30 min at room temperature, and then centrifuged at 10,000×g for 20 min. The pellet was resuspended in High Salt Detergent Buffer (HDB; 1% NP-40, 1% Triton X-100, 500 mM NaCl, 10 mM imidazole, 5 mM EDTA, 0.1% β-mercaptoethanol, 10 ug/ml PMSF, 1 mM benzamidine), stirred for 30 min at room temperature, and then centrufuged at 10,000×g for 20 min. The pellet was then washed once in each of HDB, HSB, and HLB, centrifuging at 10,000×g each time. Finally, the pellet was resuspended in HLB.

Row | Compound | IC50
3 | NC(=O)c1nnsc1Nc1ccc(Br)cc1 [KP 27296, 5-(4-Bromophenylamino)-[1,2,3]thiadiazole-4-carboxylicacid amide] | > 20 µM
4 | COc1ccc(Nc2snnc2C(N)=O)cc1 [KP 27297, 5-(4-Methoxyphenylamino)-[1,2,3]thiadiazole-4-carboxylicacid amide] | > 20 µM
5 | CCOC(=O)Nc1snnc1C(N)=O [KP 27298, (4-Carbamoyl-[1,2,3]thiadiazol-5-yl)-carbamicacid ethyl ester] | > 20 µM
6 | NC(=O)c1nnsc1NC12CC3CC(CC(C3)C1)C2 [KP 27299, 5-(Adamantan-1-ylamino)-[1,2,3]thiadiazole-4-carboxylicacid amide] | > 20 µM
7 | NC(=O)c1nnsc1NC1CCCCC1 [KP 27300, 5-Cyclohexylamino-[1,2,3]thiadiazole-4-carboxylicacid amide] | > 20 µM
8 | NC(=O)c1nnsc1NCc1ccccc1 [KP 27302, 5-Benzylamino-[1,2,3]thiadiazole-4-carboxylicacid amide] | > 20 µM
9 | NC(=O)c1nnsc1NC(=O)c1ccccc1 [KP 27303, 5-Benzoylamino-[1,2,3]thiadiazole-4-carboxylicacid amide] | > 20 µM
10 | CCNc1snnc1C(N)=O [KP 27304, 5-Ethylamino-[1,2,3]thiadiazole-4-carboxylicacid amide] | > 20 µM
11 | CCCCCCNc1snnc1C(N)=O [KP 27305, 5-Hexylamino-[1,2,3]thiadiazole-4-carboxylicacid amide] | > 20 µM
12 | CN(c1ccccc1)c1snnc1C(N)=O [KP 27420, 5-(Methylphenylamino)-[1,2,3]thiadiazole-4-carboxylicacid amide] | > 20 µM
13 | CC(=O)NC(=O)c1nnsc1Nc1ccccc1 [KP 27421, 5-Phenylamino-[1,2,3]thiadiazole-4-carboxylicacid acetylamide] | > 20 µM
14 | NCc1nnsc1Nc1ccccc1 [KP 27422, (4-Aminomethyl-[1,2,3]thiadiazol-5-yl)phenylamine] | > 20 µM
15 | O=C(O)c1nnsc1Nc1ccccc1 [KP-27271, 5-Phenylamino-[1,2,3]thiadiazole-4-carboxylicacid] | > 20 µM

Test system: not given
Assay: not given
Conditions: not given

Row | Compound | melting point
16 | CN(c1ccccc1)c1snnc1C(N)=O [KP 27420, 5-(Methylphenylamino)-[1,2,3]thiadiazole-4-carboxylicacid amide] | 194 to 196 °C
